Experimental data from publication PMC5801568, “Liquid chromatography–tandem mass spectrometry for the simultaneous quantitation of ceftriaxone, metronidazole and hydroxymetronidazole in plasma from seriously ill, severely malnourished children” (Wellcome Open Research, 2018).

Experiments:
[1] = Auto-sampler (processed sample) stability; assay type: physicochemical, human; details: 24 h at 18°C, n=5
Experimental: (§1) Stability (ST%) studies were evaluated via sample and solution concentrations, where:
(§2) ST% is the stability of the chemical compound in the sample over the period of time. c 0 is the initial concentration, determined without introducing any extra pauses in the analysis process. c t is the concentration obtained after the storage period with time t.
Processed sample stability was assessed by letting the samples stay in the autosampler at 18°C for 24h and then they were analyzed the following day. This was done to ensure data integrity in case of equipment failure and initiation of a re-run.

[2] = Freeze-thaw stability (3 cycles at -20°C); assay type: physicochemical, human; details: 3 freeze-thaw cycles at -20°C, n=5
Experimental: as §1, §2
Spiked plasma samples were subjected to three freeze-thaw cycles at -20°C and the analytes concentrations assessed after the third cycle. This was done also for plasma ultra-filtrate spiked with CEF to assess the stability of free ceftriaxone in calibrators and quality control samples.

[3] = Plasma concentrations in hospitalized children with severe acute malnutrition (LC-MS/MS); assay type: in vivo; details: human, other: intravenous (CEF) and oral (MET), one study participant, oral MET 7.5 mg/Kg given 15 min before; for concentration at 5 min: 5 min after ceftriaxone IV (80 mg/kg); for concentration at 30 min: 30 min after ceftriaxone IV (80 mg/kg)
Experimental: Total drug. To a 50 µL aliquot of plasma (blank, standard, quality control, or patient sample) 200 µL of internal standard (CEFU; of a 1.25 µg/mL solution in acetonitrile) was added. The 1.5 mL polypropylene tubes were vortex-mixed for 3 minutes to precipitate the plasma proteins, followed by centrifugation (4000 x g; 10 min, 4°C). The supernatant (100 µL) was transferred into another clean 1.5 mL polypropylene tube and diluted with 400 µL of 20% methanol in water. The samples were vortex-mixed for 3 minutes and submitted for analysis by LC-MS/MS.
The validated method was successfully applied to a pharmacokinetic study of CEF, MET, MET-OH and unbound ceftriaxone in hospitalized children with complicated severe acute malnutrition (SAM) following an oral administration of MET and intravenous administration of CEF over the course of 72 hours.
81 hospitalized children with SAM and requiring IV antibiotics according to WHO and national guidelines were recruited (after obtaining ethical approval from the Kenya Medical Research Institute Scientific and Ethics Review Unit, approval number: KEMRI/SERU/CGMR-C023-3161 and informed consent from the parents/guardians) and treated with an oral dose of 7.5mg/Kg MET (Flagyl ®oral suspension, 200 mg/5 mL) three times daily and IV injection of 80 mg/kg CEF (Ceftriaxone Rocephin ®, 250 mg) once daily 15 min after metronidazole dose. Blood samples (3.0 mL) were collected into Li-heparinized tubes, a pre-dose sample was taken before administering the drugs. Further sampling at 5, 30, 60 min after ceftriaxone dose and 2, 4, and 8 h after metronidazole dose. The sampling plan was such that each patient had only three blood draws after the base-line sample. The blood was centrifuged (3000 rpm; 5 min), plasma separated and stored at -80°C until analysis time.

[4] = Long-term stability at -20°C; assay type: physicochemical, human; details: 90 days at -20°C, n=5
Experimental: as §1, §2
Long term stability of the analytes was studied over a period that covered the duration of storage of the study samples from collection to the last sample analysis, this ensured that the integrity of study samples was not compromised over the period of storage. To investigate long term stability, two sets of sample aliquots were prepared at concentrations corresponding to low and high quality control levels. The first set was processed and analyzed at day 1 and the second set after 90 days of storage at -20°C. The analyte concentrations in the plasma and ultra-filtrate samples at 90 days of storage was compared with those obtained on day 1 to determine the percentage stability.

[5] = Bench-top (short term) stability in matrix at room temperature; assay type: physicochemical, human; details: 8 h, n=5
Experimental: as §1, §2
Bench-top stability was evaluated by keeping plasma samples at low and high quality control levels at ambient temperatures (< 28°C) for at least 8h then processed and analyzed. Selected ambient temperature covered the temperature range for study samples, as ambient temperatures remained < 28°C.

[6] = Sub-stock solution stability at -20°C; assay type: physicochemical; details: solution in 20% methanol, 28 days at -20°C; nominal conc. MET 50, CEF 300, MET-OH 30 µg/mL
Experimental: Stock solutions of CEF (5 mg of the base/mL), MET and MET-OH (both 1 mg/mL) were prepared by dissolving an appropriate amount of each compound in 20% methanol. The stock solutions were further serially diluted with 20% methanol to make working standard solutions used to spike the blank plasma to produce 0.4, 12, 24, 48, 96,150,220, 300 µg/mL CEF and 1.2, 120, 240 µg/mL QCs; 0.05, 1.0, 2.0, 4.0, 8.0, 16.0, 32.0, 50 µg/mL MET and 0.15, 20, 40 µg/mL QCs; 0.02, 0.8, 1.6, 3.2, 6.4, 13, 20, 30 µg/mL MET-OH and 0.06, 12, 24 µg/mL QCs. Stock solution of CEFU (IS) was prepared by dissolving appropriate amount of the compound in acetonitrile, the stock solution was serially diluted with acetonitrile to make working standard solutions of 1.25 µg/mL and 1 µg/mL. All the stock solutions were stored at -20°C, protected from light (in amber sample vials) and used within three months.
Sub-stock solution stability was evaluated for CEF, MET and MET-OH, by comparing the response generated from the same solution at preparation and after being stored at -20°C for a period of 28 days. […] The stability was reported as coefficient of variation between the initial concentration and the concentration at day 28.

[7] = design: method as in Wong et al. [17]; details: ref Wong et al. [17]; cited from earlier work
[8] = design: method as in Ilomuanya et al. [15]; details: at 72h; ref Ilomuanya et al. [15]; cited from earlier work
[9] = design: method as in Silva et al. [12]; details: over a period of 48h; ref Silva et al. [12]; cited from earlier work
[10] = design: method as in Ilomuanya et al. [15]; details: after the fourth freeze/thaw cycle; ref Ilomuanya et al. [15]; cited from earlier work
[11] = processed plasma samples, high QC spiked conc. (MET 40, CEF 240, MET-OH 24 µg/mL)
[12] = processed plasma samples, low QC spiked conc. (MET 0.15, CEF 1.2, MET-OH 0.06 µg/mL)
[13] = plasma ultra-filtrate, spiked conc. 1.2 µg/mL
[14] = plasma ultra-filtrate, spiked conc. 240 µg/mL
[15] = plasma, high QC spiked conc. (MET 40, CEF 240, MET-OH 24 µg/mL)
[16] = plasma, low QC spiked conc. (MET 0.15, CEF 1.2, MET-OH 0.06 µg/mL)

| SMILES | Auto-sampler stability ST % [1, 11] | Auto-sampler stability ST % [1, 12] | Freeze-thaw stability ST % [2, 15] | Freeze-thaw stability ST % [2, 16] | concentration at 5 min [3] | concentration at 30 min [3] | Long-term stability ST % [4, 15] | Long-term stability ST % [4, 16] | Benchtop stability in matrix ST % [5, 15] | Benchtop stability in matrix ST % [5, 16] | Sub-stock solution stability ST % [6] | other results |
| --- | --- | --- | --- | --- | --- | --- | --- | --- | --- | --- | --- | --- |
| CO/N=C(\C(=O)N[C@@H]1C(=O)N2C(C(=O)O)=C(CSc3nc(=O)c(=O)[nH]n3C)CS[C@H]12)c1csc(N)n1 [CEF, Ceftriaxone sodium] | 95.4% | 90.6% | 95.3% | 95.8% | 266000 ng/mL | 74400 ng/mL | 90.6% | 92.2% | 96.0% | 98.1% | 96.1% | Auto-sampler stability ST % ([1]; processed plasma ultra-filtrate, spiked conc. 1.2 µg/mL): 98.4%; Auto-sampler stability ST % ([1]; processed plasma ultra-filtrate, spiked conc. 240 µg/mL): 94.2%; Freeze-thaw stability ST % [2, 13]: 93.0%; Freeze-thaw stability ST % [2, 14]: 92.2%; Long-term stability ST % [4, 13]: 94.4%; Long-term stability ST % [4, 14]: 92.4%; Benchtop stability in matrix ST % [5, 13]: 99.8%; Benchtop stability in matrix ST % [5, 14]: 105.8%; Average protein binding [7]: 89.5% |
| Cc1ncc([N+](=O)[O-])n1CCO [MET, metronidazole] | 93.7% | 101.5% | 93.5% | 96.1% | 2540 ng/mL | 1990 ng/mL | 93.8% | 95.2% | 98.3% | 105.8% | 95.8% | Autosampler stability [8]: 40.6%–58.7%; Mean stability [9]: 93.6% - 100.6%; Concentration remaining after freeze/thaw [10]: < 90% |
| O=[N+]([O-])c1cnc(CO)n1CCO [MET-OH, 1-(2-hydroxyethyl)-2-hydroxymethyl-5-nitroimidazole] | 92.8% | 103.3% | 100.7% | 97.2% | 130 ng/mL | 660 ng/mL | 92.0% | 99.1% | 102.2% | 99.5% | 95.4% |  |
